Results reported in US10494332B2, “Protein tyrosine phosphatases or SHP2 inhibitors and uses thereof” (Indiana University Research and Technology Corporation, priority 2015, dated 2019).
Where two headings read alike, the source gives them in different places.

Assays:
Type in all cases: biochemical
SHP2 = target: T1, SHP2 (Homo sapiens, UniProt Q06124); test: SHP2 phosphatase inhibition assay (pNPP); conditions: for IC50: read-out: IC50 SHP2
T1 sequence (Q06124 224-528): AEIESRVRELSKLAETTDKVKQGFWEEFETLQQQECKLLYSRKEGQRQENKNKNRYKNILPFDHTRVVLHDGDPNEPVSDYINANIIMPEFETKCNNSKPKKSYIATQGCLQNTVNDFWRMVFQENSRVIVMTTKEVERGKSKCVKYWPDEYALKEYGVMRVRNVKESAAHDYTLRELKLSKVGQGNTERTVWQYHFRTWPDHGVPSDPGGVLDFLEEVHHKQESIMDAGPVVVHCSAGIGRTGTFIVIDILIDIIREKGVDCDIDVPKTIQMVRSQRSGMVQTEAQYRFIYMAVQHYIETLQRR

LMWPTP = target: T2, LMWPTP (Homo sapiens, UniProt P24666); test: PTP inhibition assay (pNPP)
T2 sequence (P24666 1-158): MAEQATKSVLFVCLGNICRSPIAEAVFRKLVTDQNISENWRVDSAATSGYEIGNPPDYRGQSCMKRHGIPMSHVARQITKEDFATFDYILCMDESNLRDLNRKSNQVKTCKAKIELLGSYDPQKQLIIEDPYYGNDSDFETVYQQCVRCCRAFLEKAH

LYP = target: T3, LYP (Homo sapiens, UniProt Q9Y2R2); test: PTP inhibition assay (pNPP); conditions: […]; LYP
T3 sequence (Q9Y2R2 1-807): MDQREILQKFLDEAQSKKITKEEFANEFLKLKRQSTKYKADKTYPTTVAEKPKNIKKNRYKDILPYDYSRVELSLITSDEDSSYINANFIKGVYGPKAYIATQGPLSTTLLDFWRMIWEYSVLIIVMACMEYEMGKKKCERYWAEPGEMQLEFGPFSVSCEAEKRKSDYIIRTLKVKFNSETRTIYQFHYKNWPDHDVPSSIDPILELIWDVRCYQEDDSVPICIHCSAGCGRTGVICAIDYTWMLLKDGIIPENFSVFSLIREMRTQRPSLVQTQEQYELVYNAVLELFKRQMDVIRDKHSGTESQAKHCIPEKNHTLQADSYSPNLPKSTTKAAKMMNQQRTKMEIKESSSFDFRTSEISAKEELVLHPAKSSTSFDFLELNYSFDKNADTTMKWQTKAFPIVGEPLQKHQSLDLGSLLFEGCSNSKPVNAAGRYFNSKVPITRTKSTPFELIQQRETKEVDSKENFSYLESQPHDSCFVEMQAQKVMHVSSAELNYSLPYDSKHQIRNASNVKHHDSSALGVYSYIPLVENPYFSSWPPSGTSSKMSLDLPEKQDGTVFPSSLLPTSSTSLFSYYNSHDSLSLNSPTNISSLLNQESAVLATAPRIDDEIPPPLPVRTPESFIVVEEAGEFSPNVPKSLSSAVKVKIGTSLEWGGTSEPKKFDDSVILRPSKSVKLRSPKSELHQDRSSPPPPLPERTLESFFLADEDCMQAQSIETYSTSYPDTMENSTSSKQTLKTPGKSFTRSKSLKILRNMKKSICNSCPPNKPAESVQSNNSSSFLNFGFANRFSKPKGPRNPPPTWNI

HePTP = target: T4, HePTP (Homo sapiens, UniProt P35236); test: PTP inhibition assay (pNPP); conditions: […]; HePTP
T4 sequence (P35236 1-360): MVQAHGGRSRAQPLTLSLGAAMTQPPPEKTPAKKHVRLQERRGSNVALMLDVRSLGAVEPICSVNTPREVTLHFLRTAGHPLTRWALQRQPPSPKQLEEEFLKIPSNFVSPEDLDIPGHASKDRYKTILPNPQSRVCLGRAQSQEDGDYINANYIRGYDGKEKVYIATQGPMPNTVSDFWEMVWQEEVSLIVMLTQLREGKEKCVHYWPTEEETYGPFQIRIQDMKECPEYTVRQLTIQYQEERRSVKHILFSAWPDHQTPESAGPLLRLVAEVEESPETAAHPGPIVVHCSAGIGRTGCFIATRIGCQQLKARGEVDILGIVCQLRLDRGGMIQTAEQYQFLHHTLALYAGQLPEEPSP

[1] = Example 9: SHP2 catalytic domain 20 nM, pNPP 3 mM, pH 7.0, 25° C.

Compound | IC50 (SHP2; pNPP at Km, pH 7.0, 25° C.) | IC50 (LMWPTP; […], LMWPTP) | IC50 (LYP) | IC50 (SHP2; […], SHP2) | IC50 (HePTP) | further results
O=C(Nc1ccc(NC(=O)C(c2ccccc2)S(=O)(=O)O)cc1)c1ccc(-c2ccc(Cl)cc2Cl)o1 (stereo not drawn) [Compound L319-04-B34] | 7.9 µM |  |  |  |  | 
O=C(Nc1ccc(N2CCOCC2)cc1)C(c1ccccc1F)S(=O)(=O)O (stereo not drawn) [Compound L319-06-M68] |  | > 100 µM | > 100 µM | > 100 µM | 22 µM | 
O=C(Nc1ccc(N2CCOCC2)cc1)C(c1ccccc1Cl)S(=O)(=O)O (stereo not drawn) [Compound L319-07-M68] |  | > 100 µM | > 100 µM | > 100 µM | 11 µM | 
O=C(NNc1ccccc1)C(c1ccc([N+](=O)[O-])cc1)S(=O)(=O)O (stereo not drawn) [Compound L319-08-N58] |  | 11 µM | 9.9 µM | 7.28 µM | 16 µM | 
Cc1ccc(C(C(=O)Nc2ccc(N3CCOCC3)cc2)S(=O)(=O)O)cc1 (stereo not drawn) [Compound L319-11-M68] |  | > 100 µM | 7.6 µM | > 100 µM | 3.2 µM | 
O=C(Nc1ccc(N2CCOCC2)cc1)C(c1ccc(Br)cc1)S(=O)(=O)O (stereo not drawn) [Compound L319-12-M68] |  | 21 µM | 7.43 µM | > 100 µM | 3.9 µM | 
O=C(Nc1ccc(N2CCOCC2)cc1)C(c1cccc(F)c1)S(=O)(=O)O (stereo not drawn) [Compound L319-13-M68] |  | 27 µM | 10 µM | > 100 µM | 4.3 µM | 
O=C(Nc1ccc(OCc2ccccc2)c(Cl)c1)C(c1ccc2ccccc2c1)S(=O)(=O)O (stereo not drawn) [Compound L319-14-M50] |  | 28.8 µM | 23 µM | 24 µM | 25 µM | 
O=C(Nc1ccc(N2CCOCC2)cc1)C(c1ccc2ccccc2c1)S(=O)(=O)O (stereo not drawn) [Compound L319-14-M68] |  | > 100 µM | 8.3 µM | > 100 µM | 4.5 µM | 
CC(C)CCNC(=O)C(c1ccc2ccccc2c1)S(=O)(=O)O (stereo not drawn) [Compound L319-14-N03] |  | > 100 µM | 11.6 µM | 74 µM | 24 µM | 
O=C(Nc1ccc(Br)c2ccccc12)C(c1ccc(-c2ccccc2)cc1)S(=O)(=O)O (stereo not drawn) [Compound L319-16-M47] |  | 37 µM | 22 µM | 24 µM | 21 µM | 
O=C(Nc1nc2cc(Cl)ccc2o1)C(c1ccc(-c2ccccc2)cc1)S(=O)(=O)O (stereo not drawn) [Compound L319-16-M60] |  | 18 µM | 15 µM | 12 µM | 13 µM | 
O=C(C(c1ccc(-c2ccccc2)cc1)S(=O)(=O)O)N1CCc2cc(Br)ccc21 (stereo not drawn) [Compound L319-16-M93] |  | 24 µM | 16 µM | 16 µM | 7.6 µM | 
O=C(NNc1ccccc1[N+](=O)[O-])C(c1ccc(-c2ccccc2)cc1)S(=O)(=O)O (stereo not drawn) [Compound L319-16-N55] |  | 90 µM | 35 µM | 82 µM | 43 µM | 
O=C(NNc1ccccc1)C(c1ccc(-c2ccccc2)cc1)S(=O)(=O)O (stereo not drawn) [Compound L319-16-N58] |  | 32 µM | 20 µM | 22 µM | 20 µM | 
O=C(O)C(c1ccc(-c2ccccc2)cc1)S(=O)(=O)O (stereo not drawn) [Compound L319-16] |  | > 100 µM | 5.19 µM | 25 µM | 11 µM | 
O=C(Nc1ccc(I)cc1)C(=O)Nc1ccc(NC(=O)C(c2ccccc2)S(=O)(=O)O)cc1 (stereo not drawn) [Compound L319-20-M24] | 1.5 µM |  |  |  |  | 
O=C(Nc1ccc(NC(=O)C(c2ccccc2)S(=O)(=O)O)cc1)C(=O)Nc1ccc(-c2cccs2)cc1 (stereo not drawn) [Compound L319-20-M74] | 0.9 µM |  |  |  |  | 

Compound | IC50 (SHP2; pNPP at Km, pH 7.0, 25° C.) | IC50 (LMWPTP; […], LMWPTP) | IC50 (LYP) | IC50 (SHP2; […], SHP2) | IC50 (HePTP) | further results
O=C(NC1=NN=C(c2ccc(Br)cc2)C1)C(=O)Nc1ccc(NC(=O)C(c2ccccc2)S(=O)(=O)O)cc1 (stereo not drawn) [Compound L319-20-M78] | 0.7 µM |  |  |  |  | 
O=C(Nc1ccc(NC(=O)C(c2ccccc2)S(=O)(=O)O)cc1)C(=O)Nc1ccc(-c2ccccc2)cc1 (stereo not drawn) [Compound L319-20-N08] | 1.4 µM |  |  |  |  | 
CC(C)c1ccc(NC(=O)C(=O)Nc2ccc(NC(=O)C(c3ccccc3)S(=O)(=O)O)cc2)cc1 (stereo not drawn) [Compound L319-20-N25] | 2.3 µM |  |  |  |  | 
Cc1c(Br)cc(NC(=O)C(=O)Nc2cccc(NC(=O)C(c3ccccc3)S(=O)(=O)O)c2)cc1Br (stereo not drawn) [Compound L319-22-M34] | 5.7 µM |  |  |  |  | 
O=C(Nc1cccc(NC(=O)C(c2ccccc2)S(=O)(=O)O)c1)C(=O)Nc1ccc(OCc2ccccc2)c(Cl)c1 (stereo not drawn) [Compound L319-22-M50] | 7.5 µM |  |  |  |  | 
O=C(Nc1cccc(Cc2ccccc2)c1)C(=O)Nc1cccc(NC(=O)C(c2ccccc2)S(=O)(=O)O)c1 (stereo not drawn) [Compound L319-22-M51] | 10 µM |  |  |  |  | 
O=C(NCc1ccc(NC(=O)C(c2ccccc2)S(=O)(=O)O)cc1)C(=O)Nc1ccc(-c2cccs2)cc1 (stereo not drawn) [Compound L319-23-M74] | 3.5 µM |  |  |  |  | 
O=C(Nc1ccc(CNC(=O)C(c2ccccc2)S(=O)(=O)O)cc1)C(=O)Nc1ccc(-c2cccs2)cc1 (stereo not drawn) [Compound L319-24-M74] | 1.34 µM |  |  |  |  | 
O=C(Nc1ccc(CNC(=O)C(c2ccccc2)S(=O)(=O)O)cc1)C(=O)Nc1ccccc1-c1nc2ccccc2[nH]1 (stereo not drawn) [Compound L319-24-M77] | 1.1 µM |  |  |  |  | 
O=C(Nc1nc2ccccc2s1)C(Br)(c1ccccc1)S(=O)(=O)O (stereo not drawn) [Compound L319-Br1-N15] |  |  |  | 13.2 µM | 0.2 µM | 
O=C(N1CCC(c2ccc(Cl)c(Cl)c2)CC1)C(Br)(c1ccccc1)S(=O)(=O)O (stereo not drawn) [Compound L319-Br1-N47] |  |  |  | 22.8 µM | 26 µM | 
COc1ccc(CNC(=O)C(Br)(c2ccccc2)S(=O)(=O)O)c(OC)c1 (stereo not drawn) [Compound L319-Br1-N76] |  |  |  | 9.9 µM | 21.7 µM | 
O=C(CP(=O)(O)O)Nc1nc2ccccc2s1 [Compound L338N15] |  |  |  |  |  | IC50 (LMWPTP; pNPP at Km, pH 7.0, 25° C.): 30 µM
O=C(O)C(=O)Nc1ccc(NC(=O)C(c2ccccc2)S(=O)(=O)O)cc1 (stereo not drawn) [Lib-1, 2-oxo-2-((4-(2-phenyl-2-sulfoacetamido)phenyl)amino)acetic acid] |  |  |  |  |  | IC50 (SHP2; [1]): > 50 µM
O=C(O)C(=O)Nc1cccc(NC(=O)C(c2ccccc2)S(=O)(=O)O)c1 (stereo not drawn) [Lib-2, 2-oxo-2-((3-(2-phenyl-2-sulfoacetamido)phenyl)amino)acetic acid] |  |  |  |  |  | IC50 (SHP2; [1]): > 50 µM
O=C(O)C(=O)NCc1ccc(NC(=O)C(c2ccccc2)S(=O)(=O)O)cc1 (stereo not drawn) [Lib-3, 2-oxo-2-((4-(2-phenyl-2-sulfoacetamido)benzyl)amino)acetic acid] |  |  |  |  |  | IC50 (SHP2; [1]): > 50 µM
O=C(O)C(=O)Nc1ccc(CNC(=O)C(c2ccccc2)S(=O)(=O)O)cc1 (stereo not drawn) [Lib-4, 2-oxo-2-((4-((2-phenyl-2-sulfoacetamido)methyl)phenyl)amino)acetic acid] |  |  |  |  |  | IC50 (SHP2; [1]): > 50 µM
CC1(C)S[C@@H]2[C@H](NC(=O)C(c3ccccc3)S(=O)(=O)O)C(=O)N2[C@H]1C(=O)O (stereo partly drawn) [sulbenicillin, reference compound] |  |  |  |  |  | Inhibition of SHP2 at 200 μM (SHP2; 200 μM compound concentration): no activity
